Data from patent publication US20240010726A1, “LFA-1 SIGNALLING MEDIATOR FOR USE IN CANCER THERAPY” (Universität Basel, priority 2020, published 2024).

What was measured:
[1] = test system: human PHA T cell blasts; assay: Glycolytic switch of PHA T cell blasts ± BIRT377; format: cell-based; conditions: ±BIRT377 50 μM
[2] = test system: human PHA T cell blasts; assay: Degranulation of PHA T cell blasts ± BIRT377; format: cell-based; conditions: ±BIRT377 50 μM
[3] = test system: murine WT and LFA-1^−/− CTLs; assay: Degranulation marker CD107a on murine WT and LFA-1−/− CTLs; format: cell-based; conditions: 8 h anti-CD3/anti-CD28 Ab; 1.2 mM Mg^2+ ± BIRT377 50 μM
[4] = test system: REP T cells; assay: FAK phosphorylation and CD107a degranulation of REP T cells co-incubated with T2 target cells; format: cell-based, human; conditions: pulsed T2 target cells; 1.2 mM Mg^2+ ± BIRT377 50 μM
Experimental: FIG. 3: Magnesium regulates LFA-1 mediated T cell activation and cytotoxicity as well BiTE- and CAR T-cell functionality. (a) Glycolytic switch of murine WT and LFA-1^−/− CTLs upon injection of anti-CD3/28 Ab in medium containing 1.2 mM Mg^2+ and 0 mM Mg^2+, presented as quantification of summarized data with n=4 mice. (b) Calcium flux in WT and LFA-1^−/− Jurkat T cells stimulated with anti-CD3 Ab in 1.2 mM and 0 mM Mg^2+ medium, respectively. Cells were loaded with Fluo4, and signal intensity as recorded by plate reader, was normalized to unstimulated baseline values. […] Quantified results of n=3 mice with 3 technical replicates each. (d) Caspase-3 activity in EL4 target cells after co-culture with murine WT and LFA-1^−/− CTLs under the conditions as in (c) for 4 hours, in presence of 10 μg/ml PHA. The effector to target cell ratio was 3:1. Results are quantified of n=3 mice with 3 technical replicates each. (e) Representative CD11a (LFA-1) surface expression on human naïve and EM CD8 T cells, PHA T cell blasts and REP T cells, assessed by flow cytometry. Flow cytometry-based assessment of inactivate LFA-1 with bent conformation (f), extended conformation with β2 leg extension (g), LFA-1 with open head-piece (h), phosphorylation of FAK, expression of degranulation marker CD107a (j) on REP T cells after co-incubation with T2 target cells (pulsed with 10^−8 M 9c peptide) in same condition as in (c). The effector to target cell ratio was 1:1. Data is presented as quantified results of n=5 healthy donors (f, g, h), n=3 healthy donors with 2 technical replicates each or n=1 healthy donor with 4 technical replicates (j). […] Data is presented as quantified results of n=1 healthy donor with 4 technical replicates. […] Cytotoxicity is reported as total area under the curve of the fluorescence driven by incorporation of cytotoxic green reagent in dead target cells (green area per μm^2). […] (p) Abundance of IFNγ in cell culture supernatants corresponding to the conditions depicted in (o) at 24 hours was determined by ELISA (n=8, 3 independent experiments). […]

[5] = test system: T2 target cells; format: cell-based, human; conditions: 45 min; E:T 1:1; 1.2 mM Mg^2+ ± BIRT377 50 μM
[6] = test system: Ramos target cells; assay: Co-culture assay with Blinatumomab, caspase-3 activity in Ramos target cells; format: cell-based, human; conditions: PHA-blasts, 3.5 h co-culture; reported therapeutic range 230-620 pg ml^−1; varying Mg^2+
Experimental: FIG. 3: Magnesium regulates LFA-1 mediated T cell activation and cytotoxicity as well BiTE- and CAR T-cell functionality. (a) Glycolytic switch of murine WT and LFA-1^−/− CTLs upon injection of anti-CD3/28 Ab in medium containing 1.2 mM Mg^2+ and 0 mM Mg^2+, presented as quantification of summarized data with n=4 mice. (b) Calcium flux in WT and LFA-1^−/− Jurkat T cells stimulated with anti-CD3 Ab in 1.2 mM and 0 mM Mg^2+ medium, respectively. Cells were loaded with Fluo4, and signal intensity as recorded by plate reader, was normalized to unstimulated baseline values. […] Quantified results of n=3 mice with 3 technical replicates each. […] Results are quantified of n=3 mice with 3 technical replicates each. (e) Representative CD11a (LFA-1) surface expression on human naïve and EM CD8 T cells, PHA T cell blasts and REP T cells, assessed by flow cytometry. […] Data is presented as quantified results of n=5 healthy donors (f, g, h), n=3 healthy donors with 2 technical replicates each or n=1 healthy donor with 4 technical replicates (j). […] Data is presented as quantified results of n=1 healthy donor with 4 technical replicates. […] Cytotoxicity is reported as total area under the curve of the fluorescence driven by incorporation of cytotoxic green reagent in dead target cells (green area per μm^2). […]

BIRT377 [reference compound]
Glycolytic switch of PHA T cell blasts [1]: impaired glycolytic switching | Degranulation of PHA T cell blasts [2]: decreased degranulation | CD107a degranulation of LFA-1^−/− CTLs [3]: unaffected | CD107a degranulation of WT CTLs [3]: reduced CTL degranulation | Degranulation (CD107a) of REP T cells [4]: reduced degranulation | Target cell killing by REP T cells (caspase-3 activity in T2 target cells) [5]: reduced

Blinatumomab: CD3/CD19 bispecific antibody engaging T cells to bind and eliminate CD19-positive cells
Blinatumomab-mediated cytotoxicity (caspase-3 activity in Ramos target cells) [6]: strongly dependent on availability of Mg^2+
